Laboratory results: patent US10837005B2, “Recombinant microorganism capable of producing methyl anthranilate and method of producing methyl anthranilate using the same” (priority 2019, dated 2020)

Columns and labels:
[1] = tested on: C. glutamicum ATCC 13032
[2] = tested on: Pseudomonas putida KT2440
[3] = tested on: E. coli; test: MANT toxicity test on E. coli; type: cell-based
Procedure: […]. The low resistance of E. coli to MANT could adversely affect E. coli mutations that produce MANT at high concentrations. Thus, E. coli was cultured in a modified culture system.

[4] = Partition coefficient between aqueous-phase culture medium and organic-phase tributyrin; type: physicochemical; settings: aqueous phase: Carbon-free MR minimum medium, organic phase tributyrin
Procedure: In order to solve the problem of toxicity of MANT, a two-phase aqueous organic culture system was used in the present invention (FIG. 5 in part a). Tributyrin was used as an organic solvent to extract MANT from the culture medium. Tributyrin extraction capacity was determined by measuring the partition coefficient between the aqueous medium of MANT and tributyrin, the solvent, and the result is shown in Table 2. Tributyrin is also capable of extracting ANT, but the amount of ANT extracted is very small compared to the amount of MANT and thus is negligible. […] The culture was carried out under the same conditions as in Example 1-2, except that, when IPTG was added, 10 mL of tributyrin was added therewith. MANT productivity was calculated on an aqueous phase basis (that is, Titer=Caq·Vaq+Corg·Vorg)/Vaq)).

Row | Structure (SMILES) | MANT concentration at which growth was completely inhibited ([1]; C. glutamicum) | growth profile ([1]; C. glutamicum ATCC 13032, various MANT concentrations) | MANT concentration at which strain was not capable of growing ([2]; P. putida KT2440) | growth profile ([2]; P. putida KT2440, various MANT concentrations) | MANT concentration E. coli can withstand [3] | final OD600 value ([3]; E. coli exposed to various concentrations of MANT up to 1 g/L) | final OD600 value relative to base strain not exposed to MANT ([3]; exposed to 0.5 g/L of MANT) | Partition coefficient ([4]; pH 7.0) | Partition coefficient ([4]; pH 5.0) | Partition coefficient ([4]; pH 9.0)
1 | COC(=O)c1ccccc1N [MANT, Methyl anthranilate] | 2.0 g/L | concentration-dependent inhibition | 1.0 g/L | concentration-dependent inhibition | up to 0.5 g/L | significantly reduced | about one third | 420.1 ± 7.6 | – | –
2 | Nc1ccccc1C(=O)O [Anthranilate, anthranilic acid] | – | – | – | – | – | – | – | 0.1 ± 0.0 | 4.7 ± 0.2 | Very low
